According to US7998989B2, “2-Imino-1,3-thiazoline-based compounds and T-type calcium channel inhibitors containing the same” (Korea Institute of Science and Technology, priority 2007, dated 2011):
Counter-ions that a name gives are not always drawn.

Tested on: not given
Experiment: not given
Settings: not given
In the case of CN1C(=Nc2ccc(Br)cc2)SCC1CC(=O)Nc1ccc(Cl)cc1F.Cl (centres unmarked) [KHG23065, [2-(4-bromophenylimino)-3-methyl-1,3-thiazolidine-4-yl]-N-(4-chloro-2-fluorophenyl)-acetamide hydrochloride], the melting point is reported as 239 to 240 °C. Compound CN1C(=NC2CC2)SCC1CC(=O)Nc1ccc(Oc2ccccc2)cc1.Cl (centres unmarked) [KHG24141, (2-cyclopropylimino-3-methyl-1,3-thiazolidine-4-yl)-N-(4-phenoxyphenyl)-acetamide hydrochloride] has a melting point of 219.5 to 220 °C. CCCN1C(=NC23CC4CC(CC(C4)C2)C3)SCC1CC(=O)Nc1ccc(C(F)(F)F)cc1.Cl (centres unmarked) [KHG24809, [2-(1-adamantylimino)-3-n-propyl-1,3-thiazolidine-4-yl]-N-(4-trifluoromethylphenyl)-acetamide hydrochloride] gave a melting point of 221 °C. For CN1C(=NC2CCCC2)SCC1CC(=O)Nc1ccc(CC#N)cc1.Cl (centres unmarked), the melting point was 199.5 to 200 °C. With CN1C(=NCC2CCCCC2)SCC1CC(=O)Nc1ccc(Oc2ccccc2)cc1.Cl (centres unmarked) the melting point was 250.8 °C. CC1SC(=NC2CCCCC2)N(C)C1CC(=O)Nc1ccc([N+](=O)[O-])cc1.Cl (centres unmarked) gave a melting point of 215 to 217 °C. For Br.CN1C(=NC2CCCCCC2)SCC1C(=O)Nc1cc(C(F)(F)F)cc(C(F)(F)F)c1 (centres unmarked), the melting point was 274.1 °C. With CN1C(=NC2CCCC2)SCC1CC(=O)NCc1ccc(F)cc1.Cl (centres unmarked) the melting point was 160.5 to 162 °C. CN1C(=NC2CCCCCC2)SCC1C(=O)Nc1cc(F)ccc1F (centres unmarked) [KHG24625, (2-cycloheptylimino-3-methyl-1,3-thiazolidine-4-yl)-N-(2,5-difluorophenyl)-carboxamide] gave a melting point of 184.2 °C.

Target: T1, α1G T-type calcium channel (Homo sapiens, UniProt O43497)
T1 construct: host or cells: HEK293
T1 sequence (O43497 whole entry): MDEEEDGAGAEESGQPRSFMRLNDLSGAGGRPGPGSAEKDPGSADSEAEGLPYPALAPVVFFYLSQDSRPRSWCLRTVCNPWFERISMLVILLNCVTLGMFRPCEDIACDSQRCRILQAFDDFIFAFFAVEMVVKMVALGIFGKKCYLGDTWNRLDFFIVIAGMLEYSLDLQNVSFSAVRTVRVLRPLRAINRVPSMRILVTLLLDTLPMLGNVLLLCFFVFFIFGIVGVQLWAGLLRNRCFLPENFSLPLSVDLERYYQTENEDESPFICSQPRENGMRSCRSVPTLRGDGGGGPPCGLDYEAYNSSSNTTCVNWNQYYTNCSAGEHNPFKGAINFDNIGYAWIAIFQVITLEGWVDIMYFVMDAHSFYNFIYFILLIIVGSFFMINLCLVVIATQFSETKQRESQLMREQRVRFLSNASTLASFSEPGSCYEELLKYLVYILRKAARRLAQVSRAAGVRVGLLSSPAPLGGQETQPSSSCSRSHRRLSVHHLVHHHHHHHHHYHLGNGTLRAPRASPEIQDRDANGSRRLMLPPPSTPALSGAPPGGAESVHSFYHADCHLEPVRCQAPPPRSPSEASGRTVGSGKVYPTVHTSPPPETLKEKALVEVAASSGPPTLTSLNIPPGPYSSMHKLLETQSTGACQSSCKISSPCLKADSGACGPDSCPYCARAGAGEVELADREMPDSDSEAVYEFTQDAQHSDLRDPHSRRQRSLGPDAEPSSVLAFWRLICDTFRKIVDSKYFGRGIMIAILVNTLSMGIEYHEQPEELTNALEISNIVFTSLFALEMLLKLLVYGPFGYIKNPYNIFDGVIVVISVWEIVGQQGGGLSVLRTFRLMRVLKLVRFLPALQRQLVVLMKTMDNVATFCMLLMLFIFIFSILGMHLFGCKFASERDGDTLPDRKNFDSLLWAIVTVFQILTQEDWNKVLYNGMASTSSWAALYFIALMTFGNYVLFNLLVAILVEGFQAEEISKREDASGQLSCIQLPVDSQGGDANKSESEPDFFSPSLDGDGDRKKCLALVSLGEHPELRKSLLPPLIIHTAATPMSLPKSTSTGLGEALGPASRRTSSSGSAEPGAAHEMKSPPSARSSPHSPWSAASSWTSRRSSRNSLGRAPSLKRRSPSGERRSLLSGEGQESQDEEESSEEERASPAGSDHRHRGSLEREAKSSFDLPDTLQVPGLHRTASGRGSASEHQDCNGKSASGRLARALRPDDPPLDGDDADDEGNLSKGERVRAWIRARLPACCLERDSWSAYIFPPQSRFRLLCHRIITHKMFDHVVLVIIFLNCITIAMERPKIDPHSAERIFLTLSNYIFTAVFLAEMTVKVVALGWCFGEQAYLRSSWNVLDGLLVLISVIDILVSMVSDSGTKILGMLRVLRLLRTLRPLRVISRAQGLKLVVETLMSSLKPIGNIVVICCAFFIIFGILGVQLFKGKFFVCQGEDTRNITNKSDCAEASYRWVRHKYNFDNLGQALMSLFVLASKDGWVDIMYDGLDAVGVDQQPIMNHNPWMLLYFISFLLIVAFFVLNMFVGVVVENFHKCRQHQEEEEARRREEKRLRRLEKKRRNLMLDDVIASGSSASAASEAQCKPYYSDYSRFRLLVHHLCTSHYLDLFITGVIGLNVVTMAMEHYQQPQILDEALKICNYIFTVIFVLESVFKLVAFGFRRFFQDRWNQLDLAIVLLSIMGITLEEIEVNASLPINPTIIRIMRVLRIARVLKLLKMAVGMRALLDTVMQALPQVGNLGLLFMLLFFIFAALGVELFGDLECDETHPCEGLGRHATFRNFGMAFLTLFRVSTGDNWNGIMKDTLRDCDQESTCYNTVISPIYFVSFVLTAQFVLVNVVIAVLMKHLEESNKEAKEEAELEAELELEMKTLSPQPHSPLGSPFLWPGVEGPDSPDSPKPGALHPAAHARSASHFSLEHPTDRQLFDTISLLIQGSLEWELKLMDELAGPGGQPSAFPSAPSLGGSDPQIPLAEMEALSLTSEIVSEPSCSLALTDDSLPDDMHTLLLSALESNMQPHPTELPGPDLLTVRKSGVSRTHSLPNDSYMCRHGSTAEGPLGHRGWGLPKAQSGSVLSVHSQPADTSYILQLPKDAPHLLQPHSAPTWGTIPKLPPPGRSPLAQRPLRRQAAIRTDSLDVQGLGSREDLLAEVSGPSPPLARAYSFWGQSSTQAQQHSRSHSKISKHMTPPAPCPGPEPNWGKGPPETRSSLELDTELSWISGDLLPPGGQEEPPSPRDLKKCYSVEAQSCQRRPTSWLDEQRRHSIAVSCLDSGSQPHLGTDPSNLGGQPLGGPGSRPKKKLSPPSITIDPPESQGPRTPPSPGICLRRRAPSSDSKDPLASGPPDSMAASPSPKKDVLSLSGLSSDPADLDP
Experiment: Assay for % inhibiting activity against T-type calcium channel using FDSS6000 (fluo-3 calcium imaging, KCl activation)
Type: cell-based
Settings: 10 μM; FDSS (% inhibition); comparative compounds where R6 is a phenyl group; read-out: FDSS
Experimental: In the present invention, in order to examine an efficient inhibitor against the T-type calcium channel, a primary assay for T-type calcium channel inhibiting activity was conducted by a high-efficient assay using FDSS6000, wherein mammal HEK293 cell lines (originated from human kidney carcinoma cells) that specifically express α1G of the T-type calcium channel was used for primary assay. Through the primary assay, compounds that show meaningful inhibition effects were selected. The selected compounds were used in a second assay for T-type calcium channel inhibiting activity using an electrophysiological whole cell patch clamp method, wherein mammal HEK293 cell lines (originated from human kidney carcinoma cells) that specifically express α1G of the T-type calcium channel was used for the second assay. Mibefradil, which had been developed as a T-type calcium channel inhibitor, was used as a reference.
At 12-24 hours before being used for this assay, cells of HEK293 cell line (α1G cell line: KCTC 10519BP, Korean Collection for Type Cultures), which stably express α1G T-type calcium channel and Kir2.1, were sub-cultured in a poly-L-lysine treated 96-well plate with the density of 4×10^4 per well using a 96-well cell dispenser (Titertek). On the day of assay, the 96-well plate to which the cells were attached was washed three times with HEPES buffer solution (150 mM of NaCl, 5 mM of KCl, 1 mM of MgCl2, 2 mM of CaCl2, 10 mM of HEPES, 10 mM of glucose; pH 7.4) using a 96-well plate automatic washing device (Bio Tek), then reacted with HEPES buffer solution containing 5 μM fluo-3/AM and 0.001% Pluronic F-127 at room temperature for 1 hour, to label with fluorescent dye, and then further washed two times with HEPES buffer solution.
Thereafter, at 10 minutes before the measurement using device FDSS6000, washing with HEPES buffer solution containing 10 mM CaCl2 was conducted once more, and the final volume was adjusted to 81 μl. Besides the above 96-well plate containing the cells, two additional drug 96-well plates were provided, wherein the 96-well plates contained an inhibiting drug and KCl (final concentration: 75 mM) for activating the T-type calcium channel, respectively. Since most of cell-based HTS devices are equipped with a liquid application system for injection of drug, but have no liquid sucking system, the inhibiting drug to be tested and KCl were respectively provided at a five-times higher concentration in 10 mM CaCl2 HEPES buffer solution at the amount of 27 μl, diluted by five-times at the final cell plate volume of 135 μl, and then used in this test. The concrete method of measurement using FDSS6000 was as follows. After recording the reference value of 20 seconds, the change of intracellular Ca^2+ concentration that was induced by treatment of the inhibiting drug to be tested for 75 seconds followed by administration of KCl was measured, wherein the percentage (%) inhibition effect of the test drug, through estimating the area of ratio value of 340/380 in the control without treatment of the test drug, was 100%. As a reference drug, 10 μM mibefradil was used.
For accurate calcium imaging, the light source of 4 xenon lamps in FDSS6000 were radiated to selectively expose the cells to the excitation wavelength (340 nm and 380 nm) by a computer-controlled filter wheel. Data was obtained at intervals of 1.23 seconds. The emitter fluorescence light inflowed through a long-pass filter was obtained as an average 340/380 ratio value for each well in the 96-wells by using a CCD camera and a digital fluorescence analyzer in FDSS6000. All image data and analyses were obtained by using a FDSS6000-exclusive program from Hamamatsu Photonics.
The obtained results are shown in Table 2 (the results from the compounds according to the examples of the present invention) and Table 3 (the results from the compounds according to the comparative example where R6 is a phenyl group) [FDSS (% inhibition) 10 μM].
Compound CN1C(=Nc2ccc(Br)cc2)SCC1CC(=O)Nc1ccc(Cl)cc1F.Cl (centres unmarked) [KHG23065, [2-(4-bromophenylimino)-3-methyl-1,3-thiazolidine-4-yl]-N-(4-chloro-2-fluorophenyl)-acetamide hydrochloride] has an inhibition at 10 µM of 3.57%.

Same assay, conditions: 10 μM; HEK293 cells stably expressing α1G T-type calcium channel and Kir2.1; compounds of the examples
In the case of CN1C(=NC23CC4CC(CC(C4)C2)C3)SCC1CC(=O)Nc1ccc(Cl)cc1F.Cl (centres unmarked) [KHG24411], the “FDSS (% inhibition)/10uM” value is reported as 62.67%. In the case of CCCCN1C(=NC23CC4CC(CC(C4)C2)C3)SCC1CC(=O)Nc1ccc2c(c1)OCO2.Cl (centres unmarked) [KHG24803, [2-(1-adamantylimino)-3-n-butyl-1,3-thiazolidine-4-yl]-N-(3,4-dioxymethylenephenyl)-acetamide hydrochloride], the “FDSS (% inhibition)/10uM” value is reported as 66.47%. With CCCN1C(=NC23CC4CC(CC(C4)C2)C3)SCC1CC(=O)Nc1ccc2c(c1)OCO2.Cl (centres unmarked) [KHG24837, [2-(1-adamantylimino)-3-n-propyl-1,3-thiazolidine-4-yl]-N-(3,4-dioxymethylenephenyl)-acetamide hydrochloride] the “FDSS (% inhibition)/10uM” value was 68.43%. For CC(C)N1C(=NC23CC4CC(CC(C4)C2)C3)SCC1CC(=O)Nc1ccc2c(c1)OCO2.Cl (centres unmarked) [KHG24838, [2-(1-adamantylimino)-3-isopropyl-1,3-thiazolidine-4-yl]-N-(3,4-dioxymethylenephenyl)-acetamide hydrochloride], the “FDSS (% inhibition)/10uM” value was 53.33%. In the case of CN1C(=NC23CC4CC(CC(C4)C2)C3)SCC1CC(=O)Nc1ccccc1.Cl (centres unmarked) [KHG24412], the “FDSS (% inhibition)/10uM” value is reported as 56.4%. With CCCCc1ccc(NC(=O)CC2CSC(=NC34CC5CC(CC(C5)C3)C4)N2C)cc1.Cl (centres unmarked) [KHG24409] the “FDSS (% inhibition)/10uM” value was 57.43%. With Cl.O=C(CC1CSC(=NC23CC4CC(CC(C4)C2)C3)N1C1CC1)Nc1ccc2c(c1)OCO2 (centres unmarked) [KHG24804, [2-(1-adamantylimino)-3-cyclopropyl-1,3-thiazolidine-4-yl]-N-(3,4-dioxymethylenephenyl)-acetamide hydrochloride] the “FDSS (% inhibition)/10uM” value was 44.67%.

Same assay, conditions: 10 μM; HEK293 cells stably expressing α1G T-type calcium channel and Kir2.1; compounds of the examples; hydrochloride
For Cc1ccc(NC(=O)CC2CSC(=NC3CCCCC3)N2C2CCCCC2)cc1.Cl (centres unmarked) [KHG24535, (2-cyclohexylimino-3-cyclohexyl-1,3-thiazolidine-4-yl)-N-(4-methylphenyl)-acetamide hydrochloride], the “FDSS (% inhibition)/10uM” value was 40.31%. In the case of CN1C(=NC23CC4CC(CC(C4)C2)C3)SCC1CC(=O)Nc1cc(Cl)cc(Cl)c1.Cl (centres unmarked) [KHG24410], the “FDSS (% inhibition)/10uM” value is reported as 64.09%. In the case of CCc1ccc(NC(=O)CC2CSC(=NC3CCCC3)N2C)cc1.Cl (centres unmarked) [KHG24093, (2-cyclopentylimino-3-methyl-1,3-thiazolidine-4-yl)-N-(4-ethylphenyl)-acetamide hydrochloride], the “FDSS (% inhibition)/10uM” value is reported as 34.77%. With Cc1ccc(NC(=O)CC2CSC(=NC34CC5CC(CC(C5)C3)C4)N2C)c(Cl)c1.Cl (centres unmarked) [KHG24413] the “FDSS (% inhibition)/10uM” value was 62.08%.

Same assay, conditions: HEK293, 10 μM; HEK293 cells stably expressing α1G T-type calcium channel and Kir2.1; compounds of the examples; read-out: FDSS (% inhibition)/10uM
For CN1C(=NC2CC2)SCC1CC(=O)Nc1ccc(Oc2ccccc2)cc1.Cl (centres unmarked) [KHG24141, (2-cyclopropylimino-3-methyl-1,3-thiazolidine-4-yl)-N-(4-phenoxyphenyl)-acetamide hydrochloride], the inhibition at 10 µM was 35.7%. CCCN1C(=NC23CC4CC(CC(C4)C2)C3)SCC1CC(=O)Nc1ccc(C(F)(F)F)cc1.Cl (centres unmarked) [KHG24809, [2-(1-adamantylimino)-3-n-propyl-1,3-thiazolidine-4-yl]-N-(4-trifluoromethylphenyl)-acetamide hydrochloride] gave an inhibition at 10 µM of 57.3%. Cl.O=C(CC1CSC(=NC2CCCCC2)N1C1CCCCC1)Nc1cc(C(F)(F)F)cc(C(F)(F)F)c1 (centres unmarked) [KHG24307, (2-cyclohexylimino-3-cyclohexyl-1,3-thiazolidine-4-yl)-N-(3,5-ditrifluoromethylphenyl)-acetamide hydrochloride] gave an inhibition at 10 µM of 43.9%. With CN1C(=NC2CCCCC2)SCC1CC(=O)Nc1cc(F)ccc1F (centres unmarked) [KHG24087, (2-cyclohexylimino-3-methyl-1,3-thiazolidine-4-yl)-N-(2,5-difluorophenyl)-acetamide hydrochloride] the inhibition at 10 µM was 35.4%. CN1C(=NC2CCCCCC2)SCC1CC(=O)Nc1ccc(N)cc1 (centres unmarked) [KHG24448, (2-cycloheptylimino-3-methyl-1,3-thiazolidine-4-yl)-N-(4-aminophenyl)-acetamide hydrochloride] showed an inhibition at 10 µM of 47.4%. With CN1C(=NC2CCCCC2)SCC1CC(=O)Nc1cc(C(F)(F)F)cc(C(F)(F)F)c1 (centres unmarked) [KHG24529, (2-cyclohexylimino-3-methyl-1,3-thiazolidine-4-yl)-N-(3,5-ditrifluoromethylphenyl)-acetamide hydrochloride] the inhibition at 10 µM was 58.2%. Compound CC(C)c1ccc(NC(=O)CC2CSC(=NC3CCCCC3)N2C)cc1 (centres unmarked) [KHG24110, (2-cyclohexylimino-3-methyl-1,3-thiazolidine-4-yl)-N-(4-isopropylphenyl)-acetamide hydrochloride] has an inhibition at 10 µM of 53.6%. Work on CN1C(=NC2CCCCCC2)SCC1C(=O)Nc1cc(C(F)(F)F)cc(C(F)(F)F)c1 (centres unmarked) [KHG24630, (2-cycloheptylimino-3-methyl-1,3-thiazolidine-4-yl)-N-(3,5-ditrifluoromethylphenyl)-carboxamide] yielded an inhibition at 10 µM of 56.8%. In the case of CN1C(=NC2CCCCC2)SCC1CC(=O)Nc1ccc2c(c1)OCO2 (centres unmarked) [KHG24086, (2-cyclohexylimino-3-methyl-1,3-thiazolidine-4-yl)-N-(3,4-methylenedioxyphenyl)-acetamide hydrochloride], the inhibition at 10 µM is reported as 30.5%. In the case of Cl.O=C(CC1CSC(=NC2CCCCC2)N1C1CCCCC1)Nc1ccc(Cl)cc1 (centres unmarked) [KHG24266, [2-cyclohexylimino-3-cyclohexyl-1,3-thiazolidine-4-yl]-N-(4-chlorophenyl)-acetamide hydrochloride], the inhibition at 10 µM is reported as 33.6%. Cc1ccc(NC(=O)C2CSC(=NC3CCCCCC3)N2C)cc1 (centres unmarked) [KHG24628, (2-cycloheptylimino-3-methyl-1,3-thiazolidine-4-yl)-N-(4-methylphenyl)-carboxamide] gave an inhibition at 10 µM of 42.6%. CN1C(=NC2CCCCCC2)SCC1CC(=O)NCc1ccc(N)cc1 (centres unmarked) [KHG24449, (2-cycloheptylimino-3-methyl-1,3-thiazolidine-4-yl)-N-(4-aminobenzyl)-acetamide hydrochloride] showed an inhibition at 10 µM of 40.5%. Cc1ccc(NC(=O)CC2CSC(=NC3CCCCC3)N2C2CCCCC2)cc1.Cl (centres unmarked) [KHG24313, (2-cyclohexylimino-3-cyclohexyl-1,3-thiazolidine-4-yl)-N-(4-methylphenyl)-acetamide hydrochloride] gave an inhibition at 10 µM of 31%. For CCc1ccc(NC(=O)CC2CSC(=NC3CCCC3)N2C)cc1.Cl (centres unmarked) [KHG24092, (2-cyclopentylimino-3-methyl-1,3-thiazolidine-4-yl)-N-(4-ethylphenyl)-acetamide hydrochloride], the inhibition at 10 µM was 43.1%.
